Results published in article PMC8119466, “A screen of FDA-approved drugs identifies inhibitors of protein tyrosine phosphatase 4A3 (PTP4A3 or PRL-3)” (Scientific Reports, 2021).
Where a name gives a salt, the structure may show the parent alone.

Legend:
Format in all cases: biochemical
Conditions in all cases: FDA-approved drug screen
[1] = biological target: T1, recombinant PRL-1 (Homo sapiens, UniProt Q93096); test: In vitro phosphatase assay (DiFMUP hydrolysis), PRL-1; also: test concentration or dose not given here
T1 construct: 6xHis (N, cleaved yes); made in house; host or cells: E. coli One Shot BL21 Star
T1 sequence (Q93096 1-173): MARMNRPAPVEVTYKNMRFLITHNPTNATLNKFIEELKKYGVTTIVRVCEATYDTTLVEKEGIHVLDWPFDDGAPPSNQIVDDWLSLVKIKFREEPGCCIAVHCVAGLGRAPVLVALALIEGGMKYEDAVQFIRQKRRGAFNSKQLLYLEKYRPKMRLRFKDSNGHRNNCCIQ

[2] = biological target: T2, recombinant PRL-2 (Homo sapiens, UniProt Q12974); test: In vitro phosphatase assay (DiFMUP hydrolysis), PRL-2;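 also: PRL-2 activity read as DiFMUP hydrolysis after 20 min at room temperature with drug, enzyme first pre-reduced at 4 °C for 20 min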
T2 construct: 6xHis (N, cleaved yes); made in house; host or cells: E. coli One Shot BL21 Star
T2 sequence (Q12974 1-167): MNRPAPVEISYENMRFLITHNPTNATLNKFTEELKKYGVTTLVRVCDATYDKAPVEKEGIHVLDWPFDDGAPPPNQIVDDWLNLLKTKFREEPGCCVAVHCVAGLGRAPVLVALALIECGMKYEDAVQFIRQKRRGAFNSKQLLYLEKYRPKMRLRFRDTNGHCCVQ

[3] = biological target: T3, recombinant PRL-3 (Homo sapiens, UniProt O75365); test: In vitro phosphatase assay (DiFMUP hydrolysis), PRL-3; also: test concentration or dose not given here
T3 construct: 6xHis (N, cleaved yes); made in house; host or cells: E. coli One Shot BL21 Star
T3 sequence (O75365 whole entry): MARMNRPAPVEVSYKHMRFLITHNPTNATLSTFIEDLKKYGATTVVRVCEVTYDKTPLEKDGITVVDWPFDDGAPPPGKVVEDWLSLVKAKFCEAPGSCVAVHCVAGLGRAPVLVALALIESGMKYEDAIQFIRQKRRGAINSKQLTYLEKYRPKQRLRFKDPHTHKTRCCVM

Compound | % Phosphatase Activity (compared to DMSO) PRL-1 ([1]; compared to DMSO) [%] | % Phosphatase Activity (compared to DMSO) PRL-2 ([2]; compared to DMSO) [%] | % Phosphatase Activity (compared to DMSO) PRL-3 ([3]; compared to DMSO) [%] | % Phosphatase Activity (compared to DMSO) PRL-1 ([1]; activity compared to DMSO) [%] | % Phosphatase Activity (compared to DMSO) PRL-2 ([2]; activity compared to DMSO) [%] | % Phosphatase Activity (compared to DMSO) PRL-3 ([3]; activity compared to DMSO) [%]
C[C@@H]1O[C@@H](OC[C@H]2O[C@@H](Oc3c(-c4ccc(O)c(O)c4)oc4cc(O)cc(O)c4c3=O)[C@H](O)[C@@H](O)[C@@H]2O)[C@H](O)[C@H](O)[C@H]1O [Rutin] | 88 | 82 | 71 |  |  | 
N#CC[C@H](C1CCCC1)n1cc(-c2ncnc3[nH]ccc23)cn1 [Ruxolitinib (INCB018424)] | 116 | 132 | 66 |  |  | 
COc1ccc([C@H]2CNC(=O)C2)cc1OC1CCCC1 [S- (+)-Rolipram] | 107 | 110 | 87 |  |  | 
CCn1c(=O)c(-c2cc[nH]n2)cc2c(C)nc(N)nc21 [SAR245409 (XL765)] | 89 | 74 | 74 |  |  | 
C[C@H](NCc1ccc(OCc2cccc(F)c2)cc1)C(N)=O [Safinamide Mesylate] | 103 | 112 | 86 |  |  | 
CC(C)(C)NCC(O)c1ccc(O)c(CO)c1.CC(C)(C)NCC(O)c1ccc(O)c(CO)c1.O=S(=O)(O)O (stereo not drawn) [Salbutamol Sulfate] | 94 | 90 | 88 |  |  | 
O=C(O)c1ccccc1O [Salicylic acid] | 103 | 124 | 98 |  |  | 
OCc1cc(C(O)CNCCCCCCOCCCCc2ccccc2)ccc1O (stereo not drawn) [Salmeterol Xinafoate] | 146 | 136 | 110 |  |  | 
CN1CCN(CCOc2cc(OC3CCOCC3)c3c(Nc4c(Cl)ccc5c4OCO5)ncnc3c2)CC1 [Saracatinib (AZD0530)] | 99 | 98 | 79 |  |  | 
O=C(O)c1cn(-c2ccc(F)cc2)c2cc(N3CCNCC3)c(F)cc2c1=O [Sarafloxacin HCl] | 108 | 108 | 116 |  |  | 
N#C[C@@H]1C[C@@H]2C[C@@H]2N1C(=O)[C@@H](N)C12CC3CC(CC(O)(C3)C1)C2 [Saxagliptin hydrate] | 93 | 80 | 86 |  |  | 
N#C[C@@H]1C[C@@H]2C[C@@H]2N1C(=O)[C@@H](N)C12CC3CC(CC(O)(C3)C1)C2 [Saxagliptin] | 106 | 113 | 79 |  |  | 
Cc1ncc([N+](=O)[O-])n1CC(C)O (stereo not drawn) [Secnidazole] | 112 | 102 | 81 |  |  | 
Cn1cnc2c(F)c(Nc3ccc(Br)cc3Cl)c(C(=O)NOCCO)cc21 [Selumetinib (AZD6244)] | 92 | 93 | 87 |  |  | 
CC(C)[C@H](O)C(=O)N[C@@H](C)C(=O)N[C@@H]1C(=O)N(C)CCc2ccccc21 [Semagacestat (LY450139)] | 104 | 120 | 86 |  |  | 
Cl.NCCc1c[nH]c2ccc(O)cc12 [Serotonin HCl] | 106 | 101 | 80 |  |  | 
Clc1ccc(C(Cn2ccnc2)OCc2csc3c(Cl)cccc23)c(Cl)c1 (stereo not drawn) [Sertaconazole nitrate] |  |  |  | 110 | 101 | 99
CN[C@H]1CC[C@@H](c2ccc(Cl)c(Cl)c2)c2ccccc21 [Sertraline HCl] |  |  |  | 96 | 101 | 75
CCCc1nn(C)c2c(=O)[nH]c(-c3cc(S(=O)(=O)N4CCN(C)CC4)ccc3OCC)nc12 [Sildenafil Citrate] |  |  |  | 100 | 88 | 84
